Results: patent US11078207B2, “Substituted pyrrolo[2,3-d]pyrimidines as HER2 inhibitors” (TAIHO PHARMACEUTICAL CO., LTD., priority 2019, dated 2021)

Key:
[1] = target: HER2 exon 20 insertion mutant (HER2ex20insYVMA, A775_G776insYVMA) (Homo sapiens, UniProt P04626, DUP772-775); test: Inhibitory action (in vitro) against HER2 exon 20 insertion mutant phosphorylation activity; assay type: biochemical; details: 30 min pre-incubation, ATP 200 μM, 25° C. 220 minutes
From the text: In order to determine conditions for a method of measuring the in vitro inhibitory activity of a compound against HER2 exon 20 insertion mutant phosphorylation activity, as in the case of HER2, ProfilerPro Peptide 22 was used as a substrate. A purified recombinant human HER2 exon 20 insertion mutant (A775_G776insYVMA) protein is shown in SEQ ID NO: 7, and was purchased from SignalChem. Upon the measurement of the inhibitory activity of the compound, first, the compound of the present invention was diluted stepwise with dimethyl sulfoxide (DMSO). Subsequently, the HER2 exon 20 insertion mutant protein and the compound of the present invention in DMSO solution (final concentration of DMSO: 5%) were added into a buffer for the kinase reaction (13.5 mM Tris (pH 7.5), 2 mM dithiothreitol, and 0.009% Tween 20), and the obtained mixture was then pre-incubated at 25° C. for 30 minutes. Thereafter, the substrate peptide (final concentration: 1 μM), manganese chloride (final concentration: 25 mM), magnesium chloride (final concentration: 20 mM), and ATP (final concentration: 200 μM) were added into the reaction mixture, and the thus obtained mixture was then incubated at 25° C. for 220 minutes, so that the kinase reaction was carried out. To the reaction solution, EDTA was added to a final concentration of 30 mM, so as to terminate the reaction. Finally, using LabChip (registered trademark) EZ Reader II (PerkinElmer), an unphosphorylated substrate peptide (S) and a phosphorylated peptide (P) were separated and detected according to microchannel capillary electrophoresis.

NCI-N87-Luc = test: Antitumor effect (in vivo) on direct brain transplantation models of NCI-N87-Luc; design: species or system nude mouse (BALB/cAJcl-nu/nu); details: Days 1-21
From the text: In order to confirm the antitumor effects of a test compound on direct brain transplantation models, NCI-N87-Luc, which was obtained by introducing a luciferase gene into NCI-N87 that was a human stomach cancer tumor cell line purchased from American Type Culture Collection, was used.
The NCI-N87-Luc cells were re-suspended in PBS in a concentration of 6.25×10^7 cells/mL.
Using a mouse ear bar, a nude mouse with 6 to 7 weeks old (BALB/cAJcl-nu/nu, CLEA Japan, Inc.) was fixed in a brain stereotaxic apparatus, and the skin on the upper brain portion was disinfected with alcohol cotton and was then excised with a surgical knife.
A microdrill was used to drill a hole in the skull, and then, using a needle, a manipulator, and a syringe pump, 4 μL of the cell suspension was transplanted into the brain at a rate of 0.8 μL/min.
As a reference of the amount of brain tumor, approximately 3 weeks after the transplantation, Total Flux (Photon/sec) was measured in all of the survival cases, using IVIS (PerkinElmer, Inc., model: Lumina II). Based on the obtained results, 6 animals were assigned to each group, using the grouping program of MiSTAT (Ver. 2.00).
(§1) The test compound was orally administered to the mice once a day, every day, for 21 days from the following day of the grouping (Days 1-21).
(§2) For judgment of the presence or absence of effects, the value (Log 10) obtained by logarithmic transformation of the total flux on the judgment date was used. The test compound was administered to the mice at a dose of 25 mg/kg/day in Example 2 and Example 11, whereas it was administered at a dose of 50 mg/kg/day in Example 12.
A graph was prepared with the value obtained by logarithmic transformation (Log 10) of the average total flux of each group as a vertical axis, and with the number of days (Day) after the transplantation as a horizontal axis. The transition of the total flux over time in the drug administration period was observed. […]
(§3) The value obtained by logarithmic transformation (Log 10) of the total flux on Day 22 in each group was analyzed by a Dunnett test or a Student-t test.

[2] = Body weight change in NCI-N87-Luc direct brain transplantation models; assay type: in vivo, nude mouse (BALB/cAJcl-nu/nu); details: oral 25 mg/kg/day, Days 1-21, nude mice
Procedure: as §1, §2, §3

Sequence of HER2 exon 20 insertion mutant (HER2ex20insYVMA, A775_G776insYVMA) (P04626 with tags, fused parts or gaps DUP772-775): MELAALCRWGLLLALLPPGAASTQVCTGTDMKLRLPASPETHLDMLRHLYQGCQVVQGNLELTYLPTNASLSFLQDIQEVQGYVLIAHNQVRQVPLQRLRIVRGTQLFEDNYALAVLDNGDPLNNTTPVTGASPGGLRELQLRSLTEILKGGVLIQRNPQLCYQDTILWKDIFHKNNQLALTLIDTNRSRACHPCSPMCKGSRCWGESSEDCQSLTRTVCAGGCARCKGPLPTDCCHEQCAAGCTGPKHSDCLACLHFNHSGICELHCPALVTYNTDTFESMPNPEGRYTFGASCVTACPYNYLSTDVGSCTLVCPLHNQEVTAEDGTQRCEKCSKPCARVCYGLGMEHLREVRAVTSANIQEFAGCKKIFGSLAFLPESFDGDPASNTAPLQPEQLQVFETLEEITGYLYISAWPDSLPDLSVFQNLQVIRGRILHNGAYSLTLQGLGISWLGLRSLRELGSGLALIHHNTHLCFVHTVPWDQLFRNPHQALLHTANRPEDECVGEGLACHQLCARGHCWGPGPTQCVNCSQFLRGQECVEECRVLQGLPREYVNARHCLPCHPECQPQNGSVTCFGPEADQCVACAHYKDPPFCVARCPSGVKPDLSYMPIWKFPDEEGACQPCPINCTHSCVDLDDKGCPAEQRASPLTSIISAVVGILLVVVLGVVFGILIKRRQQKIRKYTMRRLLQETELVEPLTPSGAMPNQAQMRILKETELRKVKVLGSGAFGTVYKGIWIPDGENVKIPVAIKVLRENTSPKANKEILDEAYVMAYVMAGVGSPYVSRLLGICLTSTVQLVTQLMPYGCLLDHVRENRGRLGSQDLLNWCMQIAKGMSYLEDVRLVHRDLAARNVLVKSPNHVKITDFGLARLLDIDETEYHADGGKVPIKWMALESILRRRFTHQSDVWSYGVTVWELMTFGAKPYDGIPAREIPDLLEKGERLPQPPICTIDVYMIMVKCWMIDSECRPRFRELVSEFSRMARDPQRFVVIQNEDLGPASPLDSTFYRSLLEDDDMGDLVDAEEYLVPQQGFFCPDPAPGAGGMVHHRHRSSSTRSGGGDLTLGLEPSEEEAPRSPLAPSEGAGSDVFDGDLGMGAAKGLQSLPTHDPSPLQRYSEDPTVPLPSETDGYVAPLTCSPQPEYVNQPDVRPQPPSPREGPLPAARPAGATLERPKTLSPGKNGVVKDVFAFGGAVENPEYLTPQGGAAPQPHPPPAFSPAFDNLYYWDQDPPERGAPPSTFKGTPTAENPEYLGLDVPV

Structure (SMILES)	IC50 [1]	also measured
C=CC(=O)N1C[C@H](n2c(C#CC)c(C(=O)N[C@H](C)c3cc(F)cc(F)c3)c3c(N)ncnc32)C[C@@H]1C [Example 1, 7-(R)-((3R,5S)-1-acryloyl-5-methylpyrrolidin-3-yl)-4-amino-N—((R)-1-(3,5-difluorophenyl)ethyl)-6-(prop-1-yn-1-yl)-7H-pyrrolo[2,3-d]pyrimidine-5-carboxamide]	0.34 nM	–
C=CC(=O)N1C[C@H](n2c(C#CC)c(C(=O)N[C@H](C)c3ccccc3)c3c(N)ncnc32)C[C@@H]1C [Example 2, 7-((3R,5S)-1-acryloyl-5-methylpyrrolidin-3-yl)-4-amino-N—((R)-1-phenylethyl)-6-(prop-1-yn-1-yl)-7H-pyrrolo[2,3-d]pyrimidine-5-carboxamide]	< 0.3 nM	Log 10 of total flux on Day 22 versus control group (NCI-N87-Luc; oral 25 mg/kg/day once a day): statistically significantly lower; body weight reduction of −20% or more [2]: not observed
C=CC(=O)N1C[C@H](n2c(C#CC)c(C(=O)NC(C)(C)c3ccccc3)c3c(N)ncnc32)C[C@@H]1C [Example 3, 7-((3R,5S)-1-acryloyl-5-methylpyrrolidin-3-yl)-4-amino-N-(2-phenylpropan-2-yl)-6-(prop-1-yn-1-yl)-7H-pyrrolo[2,3-d]pyrimidine-5-carboxamide]	< 0.3 nM	–
C=CC(=O)N1C[C@H](n2c(C#CC)c(C(=O)N[C@H](CC)c3ccccc3)c3c(N)ncnc32)C[C@@H]1C [Example 4, 7-((3R,5S)-1-acryloyl-5-methylpyrrolidin-3-yl)-4-amino-N—((R)-1-phenylpropyl)-6-(prop-1-yn-1-yl)-7H-pyrrolo[2,3-d]pyrimidine-5-carboxamide]	0.37 nM	–
C=CC(=O)N1C[C@H](n2c(C#CC)c(C(=O)NC(C)(C)c3ccccc3F)c3c(N)ncnc32)C[C@@H]1C [Example 5, 7-((3R,5S)-1-acryloyl-5-methylpyrrolidin-3-yl)-4-amino-N-(2-(2-fluorophenyl)propan-2-yl)-6-(prop-1-yn-1-yl)-7H-pyrrolo[2,3-d]pyrimidine-5-carboxamide]	0.38 nM	–
C=CC(=O)N1C[C@H](n2c(C#CC)c(C(=O)N[C@H](C)c3cccc(Cl)c3)c3c(N)ncnc32)C[C@@H]1C [Example 6, 7-((3R,5S)-1-acryloyl-5-methylpyrrolidin-3-yl)-4-amino-N—((R)-1-(3-chlorophenyl)ethyl)-6-(prop-1-yn-1-yl)-7H-pyrrolo[2,3-d]pyrimidine-5-carboxamide]	< 0.3 nM	–
C=CC(=O)N1C[C@H](n2c(C#CC)c(C(=O)N[C@@H](c3ccccc3)C(F)(F)F)c3c(N)ncnc32)C[C@@H]1C [Example 8, 7-((3R,5S)-1-acryloyl-5-methylpyrrolidin-3-yl)-4-amino-6-(prop-1-yn-1-yl)-N—((S)-2,2,2-trifluoro-1-phenylethyl)-7H-pyrrolo[2,3-d]pyrimidine-5-carboxamide]	< 0.3 nM	–
C=CC(=O)N1C[C@H](n2c(C#CC3CC3)c(C(=O)NC(C)(C)c3ccccc3)c3c(N)ncnc32)C[C@@H]1C [Example 9, 7-((3R,5S)-1-acryloyl-5-methylpyrrolidin-3-yl)-4-amino-6-(cyclopropylethynyl)-N-(2-phenylpropan-2-yl)-7H-pyrrolo[2,3-d]pyrimidine-5-carboxamide]	0.32 nM	–
C=CC(=O)N1C[C@H](n2c(C#CC3CC3)c(C(=O)N[C@H](C)c3cccc(F)c3F)c3c(N)ncnc32)C[C@@H]1C [Example 10, 7-((3R,5S)-1-acryloyl-5-methylpyrrolidin-3-yl)-4-amino-6-(cyclopropylethynyl)-N—((R)-1-(2,3-difluorophenyl)ethyl)-7H-pyrrolo[2,3-d]pyrimidine-5-carboxamide]	< 0.3 nM	–
C=CC(=O)N1C[C@H](n2c(C#CC3CC3)c(C(=O)N[C@H](C)c3ccccc3)c3c(N)ncnc32)C[C@@H]1C [Example 11, 7-((3R,5S)-1-acryloyl-5-methylpyrrolidin-3-yl)-4-amino-6-(cyclopropylethynyl)-N—((R)-1-phenylethyl)-7H-pyrrolo[2,3-d]pyrimidine-5-carboxamide]	< 0.3 nM	Log 10 of total flux on Day 22 versus control group (NCI-N87-Luc; oral 25 mg/kg/day once a day): statistically significantly lower; body weight reduction of −20% or more [2]: not observed
C=CC(=O)N1C[C@H](n2c(C#CC(C)(C)C)c(C(=O)N[C@H](C)c3ccccc3)c3c(N)ncnc32)C[C@@H]1C [Example 12, 7-((3R,5S)-1-acryloyl-5-methylpyrrolidin-3-yl)-4-amino-6-(3,3-dimethylbut-1-yn-1-yl)-N—((R)-1-phenylethyl)-7H-pyrrolo[2,3-d]pyrimidine-5-carboxamide]	0.39 nM	Log 10 of total flux on Day 22 versus control group (NCI-N87-Luc; oral 50 mg/kg/day once a day): statistically significantly lower
C=CC(=O)N1C[C@H](n2c(C#CC(C)(C)OC)c(C(=O)N[C@H](C)c3ccccc3)c3c(N)ncnc32)C[C@@H]1C [Example 13, 7-((3R,5S)-1-acryloyl-5-methylpyrrolidin-3-yl)-4-amino-6-(3-methoxy-3-methylbut-1-yn-1-yl)-N—((R)-1-phenylethyl)-7H-pyrrolo[2,3-d]pyrimidine-5-carboxamide]	0.44 nM	–
C=CC(=O)N1C[C@H](n2c(C#CCC)c(C(=O)N[C@H](C)c3ccccc3)c3c(N)ncnc32)C[C@@H]1C [Example 14, 7-((3R,5S)-1-acryloyl-5-methylpyrrolidin-3-yl)-4-amino-6-(but-1-yn-1-yl)-N—((R)-1-phenylethyl)-7H-pyrrolo[2,3-d]pyrimidine-5-carboxamide]	< 0.3 nM	–
C=CC(=O)N1C[C@H](n2c(C#CC)c(C(=O)N[C@H](C)c3ccccc3)c3c(N)ncnc32)C[C@@H]1CC [Example 16, 7-((3R,5S)-1-acryloyl-5-ethylpyrrolidin-3-yl)-4-amino-N—((R)-1-phenylethyl)-6-(prop-1-yn-1-yl)-7H-pyrrolo[2,3-d]pyrimidine-5-carboxamide]	0.44 nM	–
C=CC(=O)N1C[C@H](n2c(C#CC3CC3)c(C(=O)N[C@H](C)c3ccccc3)c3c(N)ncnc32)C[C@@H]1CC [Example 17, 7-((3R,5S)-1-acryloyl-5-ethylpyrrolidin-3-yl)-4-amino-6-(cyclopropylethynyl)-N—((R)-1-phenylethyl)-7H-pyrrolo[2,3-d]pyrimidine-5-carboxamide]	0.54 nM	–
C=CC(=O)N1C[C@H](n2c(C#CC3CC3)c(C(=O)N[C@H](C)c3ccccc3)c3c(N)ncnc32)C[C@@H]1COC [Example 18, 7-((3R,5R)-1-acryloyl-5-(methoxymethyl)pyrrolidin-3-yl)-4-amino-6-(cyclopropylethynyl)-N—((R)-1-phenylethyl)-7H-pyrrolo[2,3-d]pyrimidine-5-carboxamide]	< 0.3 nM	–
